This passage reports IC50 and Activity results from ChEMBL document CHEMBL1141477, “Synthesis and anticancer activity studies of cyclopamine derivatives” (Bioorg Med Chem Lett, 2008).

A word on the IC50: it is the midpoint of a concentration-inhibition curve. Lower therefore signals inhibition by little substance.

Activity calls are given as the source filed them. No cut-off for these calls is given here.

The test system of the first assay is A549. In words: Anticancer activity against human A549 cells by MTS assay. The format is functional, cell-based. On the technique in general: Formazan colour is commonly taken as a measure of viable cells.
With `CC(=O)OC[C@H]1O[C@@H](n2cc(CN3C[C@@H](C)C[C@H]4O[C@]5(CC[C@@H]6C(=C5C)C[C@H]5[C@H]6CC=C6C[C@@H](O)CC[C@@]65C)[C@H](C)[C@@H]43)nn2)[C@H](OC(C)=O)[C@@H](OC(C)=O)[C@@H]1O[C@@H]1O[C@H](COC(C)=O)[C@@H](O[C@@H]2O[C@H](COC(C)=O)[C@@H](OC(C)=O)[C@H](OC(C)=O)[C@H]2OC(C)=O)[C@H](OC(C)=O)[C@H]1OC(C)=O`, the IC50 worked out at 96 µM.
On to `CC(=O)O[C@@H]1[C@@H](OC(C)=O)[C@@H](OC(C)=O)C(n2cc(CN3C[C@@H](C)C[C@H]4O[C@]5(CC[C@@H]6C(=C5C)C[C@H]5[C@H]6CC=C6C[C@@H](O)CC[C@@]65C)[C@H](C)[C@@H]43)nn2)O[C@H]1C` (stereo partly specified), for which the IC50 was 33 µM.
With `CC(=O)OC[C@H]1O[C@@H](O[C@H]2[C@H](OC(C)=O)[C@@H](OC(C)=O)[C@H](n3cc(CN4C[C@@H](C)C[C@H]5O[C@]6(CC[C@@H]7C(=C6C)C[C@H]6[C@H]7CC=C7C[C@@H](O)CC[C@@]76C)[C@H](C)[C@@H]54)nn3)O[C@@H]2COC(C)=O)[C@H](OC(C)=O)[C@@H](OC(C)=O)[C@H]1OC(C)=O`, the midpoint of inhibition, the IC50, lay at 183 µM. Compared with the last compound, the IC50 is about 5.5-fold higher.
Compound `CC(=O)OC[C@H]1O[C@@H](n2cc(CN3C[C@@H](C)C[C@H]4O[C@]5(CC[C@@H]6C(=C5C)C[C@H]5[C@H]6CC=C6C[C@@H](O)CC[C@@]65C)[C@H](C)[C@@H]43)nn2)[C@H](OC(C)=O)[C@@H](OC(C)=O)[C@@H]1OC(C)=O` had an IC50 of 144 µM.
Still for that read-out and setting: the value for `CC1=C2C[C@H]3[C@@H](CC=C4C[C@@H](O)CC[C@@]43C)[C@@H]2CC[C@]12O[C@@H]1C[C@H](C)CN[C@H]1[C@H]2C` [CYCLOPAMINE] was 49 µM.

Another assay relates to A549. The experiment in a line: Anticancer activity against human A549 cells at 200 uM by MTS assay. The format is functional, cell-based.
Turning to `CC(=O)N[C@@H]1[C@@H](OC(C)=O)[C@@H](OC(C)=O)[C@@H](COC(C)=O)O[C@H]1n1cc(CN2C[C@@H](C)C[C@H]3O[C@]4(CC[C@@H]5C(=C4C)C[C@H]4[C@H]5CC=C5C[C@@H](O)CC[C@@]54C)[C@H](C)[C@@H]32)nn1`, the result was inactive.
For `CC(=O)N[C@@H]1[C@@H](OC(C)=O)[C@H](OC(C)=O)[C@@H](COC(C)=O)O[C@H]1n1cc(CN2C[C@@H](C)C[C@H]3O[C@]4(CC[C@@H]5C(=C4C)C[C@H]4[C@H]5CC=C5C[C@@H](O)CC[C@@]54C)[C@H](C)[C@@H]32)nn1`, the outcome was inactive.
On the same count and under the same terms, the value for `CC(=O)OC[C@H]1O[C@@H](n2cc(CN3C[C@@H](C)C[C@H]4O[C@]5(CC[C@@H]6C(=C5C)C[C@H]5[C@H]6CC=C6C[C@@H](O)CC[C@@]65C)[C@H](C)[C@@H]43)nn2)[C@H](OC(C)=O)[C@@H](OC(C)=O)[C@H]1OC(C)=O` was “inactive”; that for `CC(=O)OC[C@H]1OC(n2cc(CN3C[C@@H](C)C[C@H]4O[C@]5(CC[C@@H]6C(=C5C)C[C@H]5[C@H]6CC=C6C[C@@H](O)CC[C@@]65C)[C@H](C)[C@@H]43)nn2)[C@@H](OC(C)=O)[C@@H](OC(C)=O)[C@@H]1OC(C)=O` (stereo partly specified) was “inactive”; that for `CC(=O)O[C@@H]1[C@@H](OC(C)=O)[C@@H](n2cc(CN3C[C@@H](C)C[C@H]4O[C@]5(CC[C@@H]6C(=C5C)C[C@H]5[C@H]6CC=C6C[C@@H](O)CC[C@@]65C)[C@H](C)[C@@H]43)nn2)OC[C@H]1OC(C)=O` was “inactive”.
Consider `CC(=O)OC[C@H]1O[C@@H](n2cc(CN3C[C@@H](C)C[C@H]4O[C@]5(CC[C@@H]6C(=C5C)C[C@H]5[C@H]6CC=C6C[C@@H](O)CC[C@@]65C)[C@H](C)[C@@H]43)nn2)[C@H](OC(C)=O)[C@@H](OC(C)=O)[C@@H]1O[C@@H]1O[C@H](COC(C)=O)[C@@H](OC(C)=O)[C@H](OC(C)=O)[C@H]1OC(C)=O`, for which the outcome was inactive.
